According to patent US8563741B2, “CDK inhibitors containing a zinc binding moiety” (Curis, Inc., priority 2007, dated 2013):

Assays:
CDK1/cyclinB = biological target: T1, CDK1/cyclinB (Homo sapiens, UniProt P06493); test: CDK activity assay with p33 ATP, CDK1/cyclinB; assay type: biochemical; settings: 1 μM ATP
T1 construct: C-terminal 6His-tagged human full length cdk1 (MW=35 kDa); 6His (C); made in house; host or cells: Sf21 insect cells (baculovirus)
Text: CDK1/cyclinB (Accession Number for CDK1; GenBankNM_001786, for cyclinB; EMBL M25753):
C-terminal 6His-tagged human full length cdk1 (MW=35 kDa), and N-terminal GST-tagged human full length cyclin B (MW=75 kDa) were expressed individually with baculovirus system in Sf21 insect cells. Recombinant proteins were purified using Ni2+/NTA-agarose and GST-agarose, respectively. The cdk1 was then activated using CAK and repurified by Q Sepharose and Ni2+/NTA-agarose. They were then mixed in vitro to form protein complex. The purity of these protein complex was estimated to be 80.5% by SDSPAGE and Coomassie blue staining. Specific Activity of recombinant enzyme was measyre to be 1329 U/mg, where one unit of cdk1/cyclinB activity is defined as 1 nmol phosphate incorporated into 0.1 mg/ml histone H1 per minute at 30° C. with a final ATP concentration of […]. Enzyme was stored at concentration of 0.1 mg/ml in 50 mM Tris/HCl pH7.5, 150 mM NaCl, 0.1 mM EGTA, 0.03% Brij-35, 270 mM sucrose, 1 mM benzamidine, 0.2 mM PMSF, 0.1% 2-mercaptoethanol.

CDK6/cyclinD3 = biological target: T2, CDK6/cyclinD3 (Homo sapiens, UniProt Q00534); test: CDK activity assay with p33 ATP, CDK6/cyclinD3; assay type: biochemical; settings: 1 μM ATP; read-out: CDK6/cyclinD IC50
T2 construct: N-terminal, 6His-tagged full-length human cdk6 (MW=38 kDa); 6His (N); made in house; host or cells: Sf21 cells
Description: CDK6/cyclinD3 (Accession Number for CDK6; GenBank X66365, for Cyclin D3; EMBL M90814):
N-terminal, 6His-tagged full-length human cdk6 (MW=38 kDa) complexed with N-terminal GST-tagged full-length human cyclin D3 (MW=59 kDa) were expressed in Sf21 cells. Recombinant protein complex was purified using glutathione-agarose and activated with CAK, and repurified with Ni2+/NTA-agarose column. Purity was measured to be at least 68%. Specific Activity was measured to be 39 U/mg, where one unit of cdk6/cyclinD3 activity is defined as 1 nmol phosphate incorporated into 0.1 mg/ml histone H1 per minute at 30° C. with a final ATP concentration of 100 μM. Enzyme was stored at concentration of 0.1 mg/ml in 50 mM Tris-HCl, pH 7.5, 270 mM sucrose, 150 mM NaCl, 1 mM benzamidine, 0.2 mM PMSF, 0.1% 2-mercaptoethanol, 0.1 mM EGTA, 0.03% Brij 35.

[1] = tested on: A375 Melanoma xenograft tumors; test: Anti-tumor activity in the A375 Melanoma nude mouse xenograft model; assay type: in vivo; settings: 60 mg/Kg ip daily in 30% CAPTISOL
Description: FIG. 1 is a graph of tumor size versus time for mice bearing A375 Melanoma xenograft tumors receiving either 60 mg/Kg compound 8 in 30% CAPTISOL iv daily or vehicle only.
(c) An In Vivo Study of the Anti-Tumor Activity of Compound 8 in 30% CAPTISOL in the A375 Melanoma Nude Mouse Xenograft Model
Mice were divided into two groups of 5 to 6 mice each. Tumor volumes at the commencement of treatment were 560±230 mm^3. Compound 8 in 30% CAPTISOL was administered daily (60 mg/Kg ip) to one group of animals, while the second group of animals received an equal volume of vehicle.

[2] = tested on: HL60 AML xenograft tumors; test: Anti-tumor activity in the HM60 AML nude mouse xenograft model; assay type: in vivo; settings: for tumor growth (in words): compound 8 30 mg/Kg, compound 9 60 mg/Kg daily in 30% CAPTISOL
Description: FIG. 2 is a graph of tumor size versus time for mice bearing HL60 AML xenograft tumors receiving 30 mg/Kg compound 8 in 30% CAPTISOL iv daily, 60 mg/Kg compound 9 in 30% CAPTISOL iv daily or vehicle only.
(d) An In Vivo Study of the Anti-Tumor Activity of Compounds 8 and 9 in 30% CAPTISOL in the HM60 AML Nude Mouse Xenograft Model
Mice were divided into three groups of 4 mice each. Tumor volumes at the commencement of treatment were 157±56 mm^3. One group of mice received 30 mg/Kg compound 8 daily in 30% CAPTISOL, while a second group received 60 mg/Kg compound 9 in 30% CAPTISOL daily. The third group received an equivalent volume of vehicle daily.

[3] = tested on: OPM2 Multiple Myeloma xenograft tumors; test: Anti-tumor activity in the OPM2 Multiple Myeloma nude mouse xenograft model; assay type: in vivo; settings: 60 mg/Kg iv daily in 30% CAPTISOL
Description: FIG. 3 is a graph of tumor size versus time for mice bearing OPM2 Multiple Myeloma xenograft tumors receiving either 60 mg/Kg compound 9 in 30% CAPTISOL iv daily or vehicle only.
(e) An In Vivo Study of the Anti-Tumor Activity of Compound 9 in 30% CAPTISOL in the OPM2 Multiple Myeloma Nude Mouse Xenograft Model
Mice were divided into two groups of 7 mice each. Treatment began when the tumor sizes were 276±46 mm^3. Compound 9 in 30% CAPTISOL was administered to the animals daily at 60 mg/Kg iv.

T1 sequence (P06493 whole entry): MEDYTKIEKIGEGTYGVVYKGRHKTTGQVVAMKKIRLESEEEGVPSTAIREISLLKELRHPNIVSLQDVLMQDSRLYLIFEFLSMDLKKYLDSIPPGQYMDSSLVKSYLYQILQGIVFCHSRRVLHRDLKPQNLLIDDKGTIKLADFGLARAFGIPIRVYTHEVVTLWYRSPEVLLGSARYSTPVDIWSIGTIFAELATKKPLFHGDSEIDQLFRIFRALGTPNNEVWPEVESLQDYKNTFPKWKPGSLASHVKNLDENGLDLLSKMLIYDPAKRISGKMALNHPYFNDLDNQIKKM
T1 sequence (P14635 whole entry partner): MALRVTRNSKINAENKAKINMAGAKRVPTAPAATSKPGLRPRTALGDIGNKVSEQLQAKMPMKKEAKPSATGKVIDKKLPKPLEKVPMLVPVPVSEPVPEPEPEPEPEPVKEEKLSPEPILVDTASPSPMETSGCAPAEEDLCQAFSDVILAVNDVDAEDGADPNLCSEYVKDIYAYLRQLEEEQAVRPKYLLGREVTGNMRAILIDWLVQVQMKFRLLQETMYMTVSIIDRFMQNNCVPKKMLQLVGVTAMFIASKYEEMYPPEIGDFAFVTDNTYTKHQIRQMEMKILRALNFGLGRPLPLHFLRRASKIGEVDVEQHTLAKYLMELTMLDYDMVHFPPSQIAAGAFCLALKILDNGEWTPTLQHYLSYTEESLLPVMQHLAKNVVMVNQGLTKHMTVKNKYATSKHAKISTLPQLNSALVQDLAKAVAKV
T2 sequence (Q00534 whole entry): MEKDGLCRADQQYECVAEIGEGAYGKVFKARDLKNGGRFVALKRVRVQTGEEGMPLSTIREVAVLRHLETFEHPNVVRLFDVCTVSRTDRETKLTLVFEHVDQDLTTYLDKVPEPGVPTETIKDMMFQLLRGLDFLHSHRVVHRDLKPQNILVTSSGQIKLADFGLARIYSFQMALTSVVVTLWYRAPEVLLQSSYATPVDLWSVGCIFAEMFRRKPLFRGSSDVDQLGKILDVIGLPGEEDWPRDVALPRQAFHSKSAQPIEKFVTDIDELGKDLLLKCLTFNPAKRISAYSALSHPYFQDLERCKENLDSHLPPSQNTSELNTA
T2 sequence (P30281 whole entry partner): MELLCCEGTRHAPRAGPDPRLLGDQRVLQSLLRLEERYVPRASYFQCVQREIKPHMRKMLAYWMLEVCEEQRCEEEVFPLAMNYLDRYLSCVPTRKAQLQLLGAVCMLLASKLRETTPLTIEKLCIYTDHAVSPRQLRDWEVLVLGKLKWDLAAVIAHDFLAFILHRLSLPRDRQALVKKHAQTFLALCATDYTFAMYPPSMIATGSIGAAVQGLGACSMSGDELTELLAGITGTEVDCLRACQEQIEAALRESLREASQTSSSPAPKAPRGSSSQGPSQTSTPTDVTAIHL

| IC50 (CDK1/cyclinB) | IC50 (CDK6/cyclinD3) | melting point | Structure (SMILES) | tumor growth (in words) [1] | increase in tumor size ([1]; after 10 days, vehicle about 130% increase) | increase in tumor size ([2]; 30 mg/Kg daily in 30% CAPTISOL, after 10 days, vehicle about 230% change) | tumor growth (in words) [2] | decrease in tumor size ([2]; 60 mg/Kg daily in 30% CAPTISOL, after 10 days, vehicle about 230% change) | tumor growth (in words) [3] | increase in tumor size ([3]; after 10 days, vehicle about 450% increase) |
| --- | --- | --- | --- | --- | --- | --- | --- | --- | --- | --- |
| < 100 nM | 1000 to 10000 nM | 181 to 183 °C | CC(C)(C)c1cnc(CSc2cnc(NC(=O)C3CCN(c4ncc(C(=O)NO)cn4)CC3)s2)o1 [Compound 20, 2-(4-(5-((5-tert-butyloxazol-2-yl)methylthio)thiazol-2-ylcarbamoyl)piperidin-1-yl)-N-hydroxypyrimidine-5-carboxamide] |  |  |  |  |  |  |  |
| < 100 nM | 100 to 1000 nM |  | CC(C)(C)c1cnc(CSc2cnc(NC(=O)CCCCCCC(=O)NO)s2)o1 [Compound 8, N^1-(5-((5-tert-butyloxazol-2-yl)methylthio)thiazol-2-yl)-N^8-hydroxyoctanediamide] | able to attenuate tumor growth | 50% | ~90% | able to attenuate tumor growth |  |  |  |
| < 100 nM | 100 to 1000 nM |  | CC(C)(C)c1cnc(CSc2cnc(NC(=O)Cc3ccc(OCCCC(=O)NO)cc3)s2)o1 [Compound 9, 4-(4-(2-(5-((5-tert-butyloxazol-2-yl)methylthio)thiazol-2-ylamino)-2-oxoethyl)phenoxy)-N-hydroxybutanamide] |  |  |  | able to attenuate tumor growth | about 50% | able to attenuate tumor growth | ~50% |
